PMC7816196, “Antitubercular 2-Pyrazolylpyrimidinones: Structure–Activity Relationship and Mode-of-Action Studies” (Journal of Medicinal Chemistry, 2021)
Converted amounts (≈) assume the structure as drawn.

Experiments:
SAWC4046 = format: cell-based; conditions: Haarlem-like
SAWC3933 = format: cell-based; conditions: T1
SAWC3388 = format: cell-based; conditions: T1, Tuscany, T5/Rus
Rv3247c hypomorph = test: MIC against thymidylate kinase hypomorph; format: cell-based, Mycobacterium tuberculosis
Excerpt: Based on the structural similarity of the compounds with the published thymidylate kinase inhibitors,[39],[40] we asked whether this compound series can inhibit Mtb thymidylate kinase, which is an essential target encoded by Rv3247c. To investigate this, we tested the activity of the compounds 1, 2, and 12 against the Rv3247c hypomorph.

SAWC3385 = format: cell-based; conditions: Cas 1/Delhi
[1] = test system: panel of 21 liability targets; conditions: 10 μM test concentration
SAWC2371 = test: microbe, parasite or virus in culture; format: cell-based; conditions: Mycobacterium tuberculosis, 336 h; Haarlem; day 14
SAWC3200 = test: microbe, parasite or virus in culture; format: cell-based; conditions: Mycobacterium tuberculosis, 336 h; X1; day 14
mmpL3-TetON = test: microbe, parasite or virus in culture; format: cell-based, M. tuberculosis; conditions: for MIC / MIC50: Mycobacterium tuberculosis
SAWC3906 = format: cell-based; conditions: atypic Beijing
Mtb H37Rv = test: MIC against Mtb H37Rv, Alamar Blue broth microdilution; format: cell-based, Mycobacterium tuberculosis; conditions: for MIC: Mycobacterium tuberculosis, H37RV
WT H37Rv = test: microbe, parasite or virus in culture; format: cell-based, M. tuberculosis; conditions: Mycobacterium tuberculosis
H37Rv = test: microbe, parasite or virus in culture; format: cell-based; conditions: Mycobacterium tuberculosis, 336 h, 7H9 medium, day 14
SAWC1125 = test: microbe, parasite or virus in culture; format: cell-based; conditions: Mycobacterium tuberculosis, 336 h; typical Beijing; day 14
[2] = Kinetic aqueous solubility at pH 7.4; format: physicochemical; conditions: phosphate buffered saline, pH 7.4, aqueous (kinetic) solubility at pH 7.4; read-out: Solubility
Procedure: 3) In vitro ADME - assays
The kinetic solubility assay was p erfo rmed using a miniaturised shake flask method. 10 mM stock solutions of each of the test compounds were used to prepare calibration standards (10-220 µM) in DMSO. The same 10 mM stock soluti ons were accurately dispensed in duplicat e into 96-well plates and the DMSO dried down (MiVac GeneVac, 90 min, 37 °C). Thereafter, the samples were reconstituted (200 µM) in phosphate buffered saline (pH 7. 4) and shaken (20 hours,25 °C). The solutions were centrifuged, and the supernatant was an alysed by means of HPLC-DAD (Agilent 1200 Rapid Resolution HPLC with a diode array detector). Best fit calibration curves were constructed using the calibration standards, which were used to determine the aqueous samples’ solubility.4
The metabolic stability assay was performed in dup licate in a 96-well micro t itre plate. The test compounds (0.1 µM) were incubated individually in mouse, rat and pooled human liver microsomes (final protei n concentration of 0.4 m g/mL; XenoTech, Lenexa, KS), suspended in 0.1M phosphate buffer (pH 7.4) for predetermined time points, in the presence and abs ence of the cofactor NADPH (1 mM). Reactions were quenched by adding 300 µL of ice cold acetonitrile containing internal standard (carbamazepine, 0.0236 µg/mL). The samples were centrifuged and test in the supernatant were an alysed by means of LC-MS/MS ((Agilent Rapid Resolution HPLC, AB SCIEX 4500 MS). The rel ative loss of parent compound over time w as monitored and plots (concentration vs. time) were prepared per compound to determine the first order rate constant for compound depletion. This was in turn used to calculate h alf-life, in vitro intrinsic clearance and in vivo hepatic extraction ratio. Metabolite search es were not conducted during the met abolic stability assay.5

in vivo = conditions: male, C57/BL6, mouse
[3] = Mouse pharmacokinetics, i.v. and oral; conditions: for tolerability: mouse, i.v. 2 mg/kg or oral 20 mg/kg
Mtb [4] = test: microbe, parasite or virus in culture; format: cell-based, Mycobacterium tuberculosis
Mtb [5] = test: Checkerboard (2D) MIC assay with Fe2+ in GAST media; format: cell-based, Mycobacterium tuberculosis; conditions: GAST medium, 100/200 μM Fe2+
[6] = mouse blood samples from the PK studies
[7] = antitubercular activity of the initial hits, medium not stated
[8] = supplement csv, medium not stated
[9] = male, C57/BL6, mouse, whole blood, iv, 2 mg/kg
[10] = male, C57/BL6, mouse, whole blood, oral, 20 mg/kg
[11] = male, C57/BL6, mouse, whole blood, po, 20 mg/kg

Structure (SMILES) | MIC99 day 14, SAWC4046 (SAWC4046) [µM] | MIC99 day 14, SAWC3933 (SAWC3933) [µM] | MIC99 day 14, SAWC3388 (SAWC3388) [µM] | MIC modulation upon silencing of Rv3247c (Rv3247c hypomorph) | MIC99 day 14, SAWC3385 (SAWC3385) [µM] | MIC99 (SAWC2371) [µM] | MIC99 (SAWC3200) [µM] | change in MIC on transcriptional silencing of mmpL3 (mmpL3-TetON) | MIC (mmpL3-TetON; experiment: Follow-Up) [µM] | MIC50 (mmpL3-TetON; experiment: Follow-Up) [µM] | MIC (mmpL3-TetON; experiment: Initial) [µM] | MIC50 (mmpL3-TetON; experiment: Initial) [µM] | MIC99 day 14, SAWC3906 (SAWC3906) [µM] | MIC50 (WT H37Rv; experiment: Follow-Up) [µM] | MIC50 (WT H37Rv; experiment: Initial) [µM] | MIC99 (H37Rv) [µM] | MIC99 (SAWC1125) [µM] | tolerability [3] | other results
Cc1cc(C)n(-c2nc(O)cc(-c3ccccc3)n2)n1 [Compound 1, 2-(3,5-Dimethyl-1H-pyrazol-1-yl)-6-phenylpyrimidin-4(3H)-one] | 0.25 to 0.5 | 2 to 4 | 0.25 to 0.5 | did not observe any MIC modulation | 0.25 to 0.5 | 0.25 to 0.5 (≈ 0.0666 to 0.133 µg/mL) | 0.25 (≈ 0.0666 µg/mL) | no significant change | 0.57 (≈ 0.152 µg/mL) | 0.42 (≈ 0.112 µg/mL) | 0.7 (≈ 0.186 µg/mL) | 0.29 (≈ 0.0772 µg/mL) | 0.25 (≈ 0.0666 µg/mL) | 0.49 (≈ 0.13 µg/mL) | 0.26 (≈ 0.0692 µg/mL) | 1 to 2 (≈ 0.266 to 0.533 µg/mL) | 8 (≈ 2.13 µg/mL) | – | inhibition or activation of the enzyme/receptors [1]: no significant inhibition or activation; MIC (Mtb H37Rv; [7]): < 2 µM; MIC (Mtb H37Rv; [8]): 1 µM (≈ 0.266 µg/mL); MIC (WT H37Rv; experiment: Follow-Up): 0.78 µM (≈ 0.208 µg/mL)
Cc1ccc(Nc2cc(C)nn2-c2nc(C)cc(O)n2)cc1 [Compound 2, 6-Methyl-2-(3-methyl-5-(p-tolylamino)-1H-pyrazol-1-yl)pyrimidin-4(3H)-one] | – | – | – | did not observe any MIC modulation | – | – | – | no significant change | – | – | – | – | – | – | – | – | – | – | MIC (Mtb H37Rv; [7]): < 2 µM
Cc1cc(C)n(-c2nc(C(F)(F)F)cc(=O)[nH]2)n1 [Compound 12, 2-(3,5-Dimethyl-1H-pyrazol-1-yl)-6-(trifluoromethyl)pyrimidin-4(3H)-one] | 1 (≈ 0.258 µg/mL) | – | 2 to 4 | did not observe any MIC modulation | 1 (≈ 0.258 µg/mL) | 2 (≈ 0.516 µg/mL) | 1 (≈ 0.258 µg/mL) | no significant change | – | 8.9 (≈ 2.3 µg/mL) | 6.2 (≈ 1.6 µg/mL) | 4.8 (≈ 1.24 µg/mL) | 2 (≈ 0.516 µg/mL) | 8.3 (≈ 2.14 µg/mL) | 4.5 (≈ 1.16 µg/mL) | 2 (≈ 0.516 µg/mL) | 8 to 16 (≈ 2.07 to 4.13 µg/mL) | well tolerated | solubility at 20 h [2]: ≥ 200 µM; half-life at 24 h (in vivo; iv, 2 mg/kg): 3.1 h; half-life at 24 h (in vivo; po, 20 mg/kg): 4 h; inhibition or activation of the enzyme/receptors [1]: no significant inhibition or activation; loss in activity (Mtb H37Rv; CH3 or CF3 at R1 instead of phenyl): 10–15 fold; MIC (WT H37Rv; experiment: Initial): 5.4 µM (≈ 1.39 µg/mL); AUC(0-inf) at 24 h [3, 9]: 48.8 µM·h; clearance at 24 h [3, 9]: 2.7 mL/min/kg; bioavailability [3, 10]: ~40%
CC(=O)Nc1cc(C)nn1-c1nc(-c2ccccc2)cc(=O)[nH]1 [Compound 15, N-(3-Methyl-1-(4-oxo-6-phenyl-1,4-dihydropyrimidin-2-yl)-1H-pyrazol-5-yl)acetamide] | – | 8 (≈ 2.47 µg/mL) | – | – | 2 (≈ 0.619 µg/mL) | – | 1 (≈ 0.309 µg/mL) | no significant change | – | – | – | – | 2 (≈ 0.619 µg/mL) | – | – | 4 to 8 (≈ 1.24 to 2.47 µg/mL) | 8 to 16 (≈ 2.47 to 4.95 µg/mL) | – | –
Cc1cc(C)n(-c2nc(-c3ccncc3)cc(=O)[nH]2)n1 [Compound 20, 2-(3,5-Dimethyl-1H-pyrazol-1-yl)-6-(pyridin-4-yl)pyrimidin-4(3H)-one] | 2 to 4 | 16 (≈ 4.28 µg/mL) | 4 to 8 | – | 2 to 4 | 2 to 4 (≈ 0.535 to 1.07 µg/mL) | 1 to 2 (≈ 0.267 to 0.535 µg/mL) | – | – | – | – | – | 2 (≈ 0.535 µg/mL) | – | – | 4 to 8 (≈ 1.07 to 2.14 µg/mL) | 32 (≈ 8.55 µg/mL) | – | –
Cc1cc(Nc2ccc(F)cc2)n(-c2nc(C(F)(F)F)cc(=O)[nH]2)n1 [Compound 40, 2-(5-((4-Fluorophenyl)amino)-3-methyl-1H-pyrazol-1-yl)-6-(trifluoromethyl)pyrimidin-4(3H)-one] | – | – | – | – | – | – | – | no significant change | 0.56 (≈ 0.198 µg/mL) | 0.36 (≈ 0.127 µg/mL) | 0.34 (≈ 0.12 µg/mL) | 0.18 (≈ 0.0636 µg/mL) | – | 0.4 (≈ 0.141 µg/mL) | 0.3 (≈ 0.106 µg/mL) | – | – | well tolerated | half-life (in vivo; iv, 2 mg/kg): 4 h; half-life (in vivo; po, 20 mg/kg): 6.1 h; MIC (WT H37Rv; experiment: Follow-Up): 0.51 µM (≈ 0.18 µg/mL); MIC (WT H37Rv; experiment: Initial): 0.54 µM (≈ 0.191 µg/mL); AUC(0-inf) [3, 9]: 256 µM·h; CLint scaled [3, 9]: 34 mL/min/kg; Cmax [3, 9]: 33.1 µM; Vd [3, 9]: 0.1 L/kg; clearance [3, 9]: 0.4 mL/min/kg; bioavailability [3, 10]: ~40%; AUC(0-inf) [3, 11]: 1090 µM·h; Cmax [3, 11]: 104 µM; bioavailability [3, 11]: 44%
Cc1cc(Nc2ccccn2)n(-c2nc(C(F)(F)F)cc(=O)[nH]2)n1 [Compound 45, 2-(3-Methyl-5-(pyridin-2-ylamino)-1H-pyrazol-1-yl)-6-(trifluoromethyl)pyrimidin-4(3H)-one] | – | – | – | – | – | – | – | – | – | – | – | – | – | – | – | – | – | – | Fold-change of MIC (Mtb [4]; 200 µM Ferric ammonium citrate): 2-4 fold; MIC (Mtb [4]; Mycobacterium tuberculosis, […], supplement: None): 0.39 µM (≈ 0.131 µg/mL); increase in MIC (Mtb [5]): ≥ 32 fold; MIC (Mtb H37Rv; 168 h): ≤ 1 µM
CCNc1cc(C)nn1-c1nc(-c2cccnc2)cc(=O)[nH]1 [Compound 47, 2-(5-(Ethylamino)-3-methyl-1H-pyrazol-1-yl)-6-(pyridin-3-yl)pyrimidin-4(3H)-one] | – | – | – | – | – | – | – | no significant change | 4.4 (≈ 1.3 µg/mL) | 3.2 (≈ 0.948 µg/mL) | 2.4 (≈ 0.711 µg/mL) | 2.1 (≈ 0.622 µg/mL) | – | 3.5 (≈ 1.04 µg/mL) | 2.5 (≈ 0.741 µg/mL) | – | – | well tolerated | half-life (in vivo; iv, 2 mg/kg): 5.6 h; half-life (in vivo; po, 20 mg/kg): 4.4 h; MIC (Mtb H37Rv; [8]): 6 µM (≈ 1.78 µg/mL); AUC(0-inf) [3, 9]: 1.52 µM·h; CLint scaled [3, 9]: > 4000 mL/min/kg; Cmax [3, 9]: 2.4 µM; Vd [3, 9]: 37.4 L/kg; AUC(0-inf) [3, 11]: 5.22 µM·h; Cmax [3, 11]: 2.9 µM; Tmax [3, 11]: 0.5 h; bioavailability [3, 11]: 33%; major metabolite [6]: glucuronide
